Starred links: 1 amine or outer side, 2 acyl side, 3 side chain; linkers in the order of their positions; H or OH if unused. Positions of bridges follow the written chain, without caps; N, C: chain ends. Non-standard residues stand in square brackets, D forms with d. Residues, ends and D or L forms follow the SMILES beside them. *: point of attachment. NMeAbu(3,3-F2-piperidino) = CN[C@@H](CCN1CCCC(F)(F)C1)C(=O)O; X6 = CN([C@@H](CCN1CCC(F)(F)CC1)C(=O)[*:2])[*:1]; 3Pal(6-NMe2) = CN(C)c1ccc(C[C@H](N)C(=O)O)cn1; NMePhe(3-Cl) = CN[C@@H](Cc1cccc(Cl)c1)C(=O)O; N(isopentyl)Gly = CC(C)CCNCC(=O)O; NMeF = CN[C@@H](Cc1ccccc1)C(=O)O; NMeGABA = CN(CCCC(=O)[*:2])[*:1]; NMeL = CN[C@@H](CC(C)C)C(=O)O; NMeV = CN[C@H](C(=O)O)C(C)C; NMeAbu = CC[C@H](NC)C(=O)O; NPentylGly = CCCCCNCC(=O)O; NMeS = CN[C@@H](CO)C(=O)O; NMeA = CN[C@@H](C)C(=O)O; Piperidide = C1CCN(*)CC1; Abu = CC[C@H](N)C(=O)O; NBuGly = CCCCNCC(=O)O; Isopentyl = CC(C)CC*; Sar = CNCC(=O)O; tBu = CC(C)(C)*; Propyl = CCC*

The first data set can be described thus: Caco-2 membrane permeability, improved method as used in the following Examples (96-well, 20 to 24 h preincubation). Type of data set: in vitro ADME. As to conditions: human, Caco-2, Caco-2. The essentials: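 Papp (cm/sec) was derived from LC/MS of basal samples collected 180 min after apical dosing in FaSSIF/HBSS pH 6.0 with 1% DMSO, against a basal HBSS pH 7.4 receiver containing 4% BSA. Three-week Caco-2 cultures were first preincubated with compound in DMEM+FaSSIF at 37 °C for 20–24 h.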
A general note: Caco-2 monolayers are a common model of the intestinal barrier.
`CC(C)C[C@@H]1NC(=O)[C@H](C)N(C)C(=O)C[C@@H](C(=O)N2CCCCC2)NC(=O)[C@H](C(C)C)N(C)C(=O)CN(C)C(=O)[C@H]([C@@H](C)O)NC(=O)[C@H](CCN2CCCC(F)(F)C2)N(C)C(=O)[C@H](Cc2ccccc2)N(C)C(=O)[C@H](CC(C)C)NC(=O)[C@H](Cc2ccccc2)N(C)C(=O)[C@H](CC(C)C)N(C)C1=O` [pd391] ([NMeA]L[NMeL][NMeF]L[NMeF][NMeAbu(3,3-F2-piperidino)]T[Sar][NMeV]D-Piperidide; lactam N-11) returned a Papp A→B at 180 min of 2.4 ×10⁻⁶ cm/s.

`CCCCN1CC(=O)N(C)[C@@H](CCN2CCCC(F)(F)C2)C(=O)N[C@H](C(=O)N2CCCCC2)CC(=O)N(C)[C@@H](C)C(=O)N[C@@H](CC(C)C)C(=O)N(C)[C@@H](CC(C)C)C(=O)N(C)[C@@H](Cc2ccccc2)C(=O)N[C@@H](CC(C)C)C(=O)N(C)[C@@H](Cc2ccccc2)C(=O)N(C)[C@@H](C)C(=O)N[C@@H]([C@@H](C)O)C1=O` [pd392] ([NMeA]L[NMeL][NMeF]L[NMeF][NMeA]T[NBuGly][NMeAbu(3,3-F2-piperidino)]D-Piperidide; lactam N-11) displayed a Papp A→B at 180 min of 3.5 ×10⁻⁶ cm/s.

For `CC(C)CCOC[C@@H]1NC(=O)[C@H](CCN2CCCC(F)(F)C2)N(C)C(=O)[C@H](Cc2ccccc2)N(C)C(=O)CN(C)C(=O)[C@H]([C@@H](C)O)NC(=O)[C@H](CC(C)C)N(C)C(=O)[C@H](CC(C)C)NC(=O)[C@H](Cc2ccccc2)N(C)C(=O)CN(C)C(=O)C[C@@H](C(=O)N2CCCCC2)NC(=O)[C@H](CC(C)C)N(C)C1=O` [pd393] ([Sar][NMeF]L[NMeL]T[Sar][NMeF][NMeAbu(3,3-F2-piperidino)]S(Isopentyl)[NMeL]D-Piperidide; lactam N-11), the Papp A→B at 180 min amounted to 2.5 ×10⁻⁶ cm/s.

In turn, `CCCCN1CC(=O)N(C)[C@@H](CC(C)C)C(=O)N[C@@H](CC(C)C)C(=O)N(C)[C@@H](Cc2ccccc2)C(=O)N(C)[C@@H](C)C(=O)N[C@H](C(=O)N2CCCCC2)CC(=O)N[C@H](C(C)C)C(=O)N(C)[C@@H](Cc2ccccc2)C(=O)N[C@@H](CC(C)C)C(=O)N(C)[C@@H](CCN2CCC(F)(F)CC2)C(=O)N[C@@H]([C@@H](C)O)C1=O` [pd394] ([dV][NMeF]L[X6]T[NBuGly][NMeL]L[NMeF][NMeA]D-Piperidide; lactam N-11) gave a Papp A→B at 180 min of 1.8 ×10⁻⁶ cm/s.

`CCCCN1CC(=O)N(C)[C@@H](Cc2ccccc2)C(=O)N[C@@H](CC(C)C)C(=O)N(C)[C@@H](CC(C)C)C(=O)N[C@@H]([C@@H](C)O)C(=O)N(C)CC(=O)N(C)[C@@H](Cc2ccccc2)C(=O)N(C)[C@@H](CCN2CCC(F)(F)CC2)C(=O)N[C@@H](CC(C)C)C(=O)N(C)[C@@H](C(C)C)C(=O)N[C@H](C(=O)N2CCCCC2)CC1=O` [pd395] ([NBuGly][NMeF]L[NMeL]T[Sar][NMeF][X6]L[NMeV]D-Piperidide; lactam N-11): the Papp A→B at 180 min worked out at 1.7 ×10⁻⁶ cm/s.

`CC(C)CCN1CC(=O)N(C)[C@@H](CC(C)C)C(=O)N[C@@H](COC(C)(C)C)C(=O)N(C)[C@@H](Cc2ccccc2)C(=O)N(C)[C@@H](C(C)C)C(=O)N[C@H](C(=O)N2CCCCC2)CC(=O)N[C@H](C)C(=O)N(C)[C@@H](CC(C)C)C(=O)N[C@@H](Cc2ccc(N(C)C)nc2)C(=O)N(C)[C@@H](CC(C)C)C(=O)N[C@@H]([C@@H](C)O)C1=O` [pd396] ([dA][NMeL][3Pal(6-NMe2)][NMeL]T[N(isopentyl)Gly][NMeL]S(tBu)[NMeF][NMeV]D-Piperidide; lactam N-11) returned a Papp A→B at 180 min of 1.5 ×10⁻⁶ cm/s.

In turn, `CC(C)C[C@@H]1NC(=O)[C@H](CC(C)C)N(C)C(=O)CCCN(C)C(=O)C[C@@H](C(=O)N2CCCCC2)NC(=O)[C@H](CC(C)C)N(C)C(=O)[C@H](CC(C)C)N(C)C(=O)[C@H]([C@@H](C)O)NC(=O)[C@H](CC(C)C)N(C)C(=O)[C@H](Cc2ccc(N(C)C)nc2)NC(=O)[C@H](Cc2ccccc2)N(C)C(=O)[C@H](CC(C)C)N(C)C1=O` [pd397] ([NMeGABA][NMeL]L[NMeL][NMeF][3Pal(6-NMe2)][NMeL]T[NMeL][NMeL]D-Piperidide; lactam N-11) displayed a Papp A→B at 180 min of 1.2 ×10⁻⁶ cm/s.

The molecule `CCCCN1CC(=O)N(C)[C@@H](C)C(=O)N[C@H](C(=O)N2CCCCC2)CC(=O)N(C)[C@@H](C(C)C)C(=O)N[C@@H](CC(C)C)C(=O)N(C)[C@@H](CC(C)C)C(=O)N(C)[C@@H](Cc2cccc(Cl)c2)C(=O)N[C@@H](Cc2ccc(N(C)C)nc2)C(=O)N(C)[C@@H](C)C(=O)N(C)[C@@H](CC(C)C)C(=O)N[C@@H]([C@@H](C)O)C1=O` [pd399] ([NMeV]L[NMeL][NMePhe(3-Cl)][3Pal(6-NMe2)][NMeA][NMeL]T[NBuGly][NMeA]D-Piperidide; lactam N-11) had a Papp A→B at 180 min of 1.5 ×10⁻⁶ cm/s.

As for `CCCCN1CC(=O)N(C)[C@@H](CC(C)C)C(=O)N[C@H](C(=O)N2CCCCC2)CC(=O)N(C)[C@@H](C)C(=O)N[C@@H](Cc2ccc(N(C)C)nc2)C(=O)N(C)[C@@H](C)C(=O)N(C)[C@@H](C)C(=O)N[C@@H](CC(C)C)C(=O)N(C)[C@@H](Cc2cccc(Cl)c2)C(=O)N(C)[C@@H](CC(C)C)C(=O)N[C@@H]([C@@H](C)O)C1=O` [pd400] ([NMeA][3Pal(6-NMe2)][NMeA][NMeA]L[NMePhe(3-Cl)][NMeL]T[NBuGly][NMeL]D-Piperidide; lactam N-11), the Papp A→B at 180 min worked out at 2.3 ×10⁻⁶ cm/s.

As to `CCCOC[C@H]1C(=O)N[C@@H](Cc2ccc(N(C)C)nc2)C(=O)N(C)[C@@H](Cc2cccc(Cl)c2)C(=O)N(C)[C@@H](C)C(=O)N[C@@H]([C@@H](C)O)C(=O)N(CCC(C)C)CC(=O)N(C)[C@@H](C(C)C)C(=O)N[C@H](C(=O)N2CCCCC2)CC(=O)N(C)[C@@H](C)C(=O)N[C@@H](CC(C)C)C(=O)N(C)[C@@H](CC(C)C)C(=O)N1C` [pd401] ([NMeA]L[NMeL][NMeS](Propyl)[3Pal(6-NMe2)][NMePhe(3-Cl)][NMeA]T[N(isopentyl)Gly][NMeV]D-Piperidide; lactam N-11), the Papp A→B at 180 min turned out to be 2.9 ×10⁻⁶ cm/s.

`CCCCN1CC(=O)N(C)[C@@H](CC(C)C)C(=O)N[C@@H](Cc2ccc(N(C)C)nc2)C(=O)N(C)[C@@H](CC(C)C)C(=O)N[C@@H]([C@@H](C)O)C(=O)N(C)CC(=O)N(C)[C@@H](Cc2ccccc2)C(=O)N(C)[C@@H](CC(C)C)C(=O)N[C@@H](COCCC(C)C)C(=O)N(C)[C@@H](C)C(=O)N[C@H](C(=O)N2CCCCC2)CC1=O` [pd402] ([NBuGly][NMeL][3Pal(6-NMe2)][NMeL]T[Sar][NMeF][NMeL]S(Isopentyl)[NMeA]D-Piperidide; lactam N-11) displayed a Papp A→B at 180 min of 1 ×10⁻⁶ cm/s.

As for `CCCCCN1CC(=O)N(C)[C@@H](CC(C)C)C(=O)N[C@H](C(=O)N2CCCCC2)CC(=O)N(C)[C@@H](C(C)C)C(=O)N[C@@H](CC(C)C)C(=O)N(C)[C@@H](CC)C(=O)N(C)[C@@H](Cc2ccccc2)C(=O)N[C@@H](C)C(=O)N(C)[C@@H](Cc2ccccc2)C(=O)N(C)[C@@H](CC)C(=O)N[C@@H]([C@@H](C)O)C1=O` [pd403] ([NMeV]L[NMeAbu][NMeF]A[NMeF][NMeAbu]T[NPentylGly][NMeL]D-Piperidide; lactam N-11), the Papp A→B at 180 min amounted to 9 ×10⁻⁶ cm/s.

As to `CCCCCN1CC(=O)N(C)[C@@H](Cc2ccccc2)C(=O)N(C)[C@@H](CC(C)C)C(=O)N[C@@H](COC(C)(C)C)C(=O)N(C)[C@@H](CC(C)C)C(=O)N[C@H](C(=O)N2CCCCC2)CC(=O)N(C)CC(=O)N(C)[C@@H](Cc2ccccc2)C(=O)N[C@@H](C(C)C)C(=O)N(C)[C@@H](C)C(=O)N[C@@H]([C@@H](C)O)C1=O` [pd404] ([Sar][NMeF]V[NMeA]T[NPentylGly][NMeF][NMeL]S(tBu)[NMeL]D-Piperidide; lactam N-11), the Papp A→B at 180 min was found to be 1.3 ×10⁻⁶ cm/s.

As for `CCCCCN1CC(=O)N(C)[C@@H](Cc2ccccc2)C(=O)N[C@@H](CC(C)C)C(=O)N(C)[C@@H](CC)C(=O)N[C@@H]([C@@H](C)O)C(=O)N(C)CC(=O)N(C)[C@@H](Cc2ccccc2)C(=O)N(C)[C@@H](CC)C(=O)N[C@@H](COC(C)(C)C)C(=O)N(C)[C@@H](CC(C)C)C(=O)N[C@H](C(=O)N2CCCCC2)CC1=O` [pd405] ([NPentylGly][NMeF]L[NMeAbu]T[Sar][NMeF][NMeAbu]S(tBu)[NMeL]D-Piperidide; lactam N-11), the Papp A→B at 180 min was determined as 2.2 ×10⁻⁶ cm/s.

Molecule `CCCCCN1CC(=O)N[C@@H]([C@@H](C)O)C(=O)N(C)[C@@H](C)C(=O)N(C)[C@@H](CC(C)C)C(=O)N[C@@H](COC(C)(C)C)C(=O)N(C)[C@@H](Cc2ccccc2)C(=O)N(C)[C@@H](CC(C)C)C(=O)N[C@H](C(=O)N2CCCCC2)CC(=O)N[C@H](C)C(=O)N(C)[C@@H](Cc2ccccc2)C(=O)N[C@@H](C(C)C)C1=O` [pd407] ([dA][NMeF]V[NPentylGly]T[NMeA][NMeL]S(tBu)[NMeF][NMeL]D-Piperidide; lactam N-11) yielded a Papp A→B at 180 min of 3 ×10⁻⁶ cm/s.

Regarding `CCCCCN1CC(=O)N[C@@H]([C@@H](C)O)C(=O)N(C)CC(=O)N(C)[C@@H](CC(C)C)C(=O)N[C@H](C(=O)N2CCCCC2)CC(=O)N(C)[C@@H](CC)C(=O)N[C@@H](CC(C)C)C(=O)N(C)[C@@H](CC(C)C)C(=O)N(C)[C@@H](Cc2ccccc2)C(=O)N[C@@H](CC)C(=O)N(C)[C@@H](Cc2ccccc2)C1=O` [pd408] ([NMeAbu]L[NMeL][NMeF][Abu][NMeF][NPentylGly]T[Sar][NMeL]D-Piperidide; lactam N-11), the Papp A→B at 180 min amounted to 1.8 ×10⁻⁶ cm/s.

Staying with this data set, now noted: human; Papp, Caco-2 membrane permeability, improved method; read-out: Caco-2.
As to `CCCCN1CC(=O)N(C)[C@@H](CC(C)C)C(=O)N[C@H](C(=O)N2CCCCC2)CC(=O)N(C)[C@@H](C)C(=O)N[C@@H](Cc2ccc(N(C)C)nc2)C(=O)N(C)[C@@H](CC(C)C)C(=O)N(C)[C@@H](Cc2ccccc2)C(=O)N[C@@H](CC(C)C)C(=O)N(C)[C@@H](C)C(=O)N(C)[C@@H](CC(C)C)C(=O)N[C@@H]([C@@H](C)O)C1=O` [pd398] ([NMeA][3Pal(6-NMe2)][NMeL][NMeF]L[NMeA][NMeL]T[NBuGly][NMeL]D-Piperidide; lactam N-11), the Papp A→B at 180 min worked out at 2.7 ×10⁻⁶ cm/s.

(Values after US20200131669A1, “CYCLIC PEPTIDE COMPOUND HAVING HIGH MEMBRANE PERMEABILITY, AND LIBRARY CONTAINING SAME” (Chugai Seiyaku Kabushiki Kaisha, priority 2017, published 2020).)
